According to PMC11443480, “Natural Rubrolides and Their Synthetic Congeners as Inhibitors of the Photosynthetic Electron Transport Chain” (Journal of Natural Products, 2024):
Values joined by “and” are separate entries in the source; they are usually repeats but may differ in a detail not shown here. Equal values may be shown once. “Also recorded” adds a separate entry of the source.

Key:
[1] = tested on: photosynthetic electron transport chain in isolated spinach thylakoids; assay: Hill reaction: light-dependent ferricyanide reduction in isolated spinach thylakoids (basal); format: biochemical, spinach (Spinacea oleracea L.); conditions: basal conditions, 0.05–100 μM tested, triplicate; for IC50: read-out: IC50, inhibition by 50% of the light-dependent ferricyanide reduction
Description: The ability of natural rubrolides and their synthetic analogues to interfere with the chloroplast electron transport chain was evaluated by measuring the Hill reaction in thylakoid membranes isolated from spinach leaves. The results were summarized as the concentrations able to inhibit by 50% the rate measured in untreated controls (IC50, Table 2).
Thylakoid membranes were isolated from spinach (Spinacea oleracea L.) leaves. Plant material was resuspended in 5 mL g^–1 of ice-cold 20 mM Tricine-NaOH buffer (pH 8.0) containing 10 mM NaCl, 5 mM MgCl2, and 0.4 M sucrose and homogenized for 30 s in a blender at maximal speed. The homogenate was filtered through surgical gauze, and the filtrate was centrifuged at 4 °C for 1 min at 500g; the supernatant was further centrifuged for 10 min at 1,500g. Pelleted chloroplasts were osmotically swollen by resuspension in a sucrose-lacking buffer. The suspension was immediately diluted 1:1 with sucrose-containing buffer, kept on ice in the dark, and used within a few hours from the preparation. Chlorophyll content was calculated after diluting with 80% (v/v) acetone on the basis of Arnon’s formula. The basal rate of photosynthetic electron transport was measured by following light-driven ferricyanide reduction. Membrane aliquots corresponding to 3 μg of chlorophyll were incubated at 24 °C in wells of 96-well-plates in a final volume of 200 μL in the presence of 20 mM Tricine-NaOH buffer (pH 8.0), 10 mM NaCl, 5 mM MgCl2, 0.2 M sucrose, and 2 mM K3Fe(CN)6. The assay was initiated by exposure to saturating light (600 μmol m^–2 s^–1), and the rate of ferricyanide reduction was measured at 30 s intervals for 10 min using a Ledetect 96 plate reader (Labexim, Lengau, Austria) equipped with a LED plugin at 420 nm. Activity was calculated over the linear portion of the curve from a molar extinction coefficient of 1,000 M^–1 cm^–1. Rubrolides were dissolved in DMSO to obtain 10 mM solutions, which were then diluted with H2O, as appropriate. Their effect upon the Hill reaction was evaluated in parallel assays in which the compounds were added to the reaction mixture to concentrations ranging from 0.05 to 100 μM. Each dose was carried out at least in triplicate, and results were expressed as percentage of untreated controls. Mean values ± SE over replicates are reported. The concentrations causing 50% inhibition (IC50) and their confidence limits were estimated by nonlinear regression analysis using Prism 6 for Windows, version 6.03 (GraphPad Software).

[2] = tested on: photosynthetic electron transport chain in isolated spinach chloroplast; assay: Ferricyanide reduction under uncoupling and phosphorylating conditions; format: biochemical, spinach (Spinacea oleracea L.); conditions: 10^–7 to 10^–5 M range
Description: Diuron was included as a positive control.
(§1) Phosphorylating electron flow was evaluated under the same conditions but in the presence of 0.5 mM ADP and 2 mM K2HPO4. Uncoupled activity was measured following the addition of 2 mM NH4Cl to the basal reaction mixture containing aliquots of membrane preparations corresponding to 1.5 μg of chlorophyll. To evaluate the effect on PSII only, uncoupled activity was blocked by the addition of the cytochrome b6f inhibitor 2,5-dibromo-6-isopropyl-3-methyl-1,4-benzoquinone (DBMIB) at […], and an electronic transfer from H2O to ferricyanide that excludes PSI (H2O → PSII → D1 protein → phenylendiamine → ferricyanide) was restored through the addition of 0.1 mM phenylenediamine. In this case, due to the lower reduction rate, aliquots of membrane preparations corresponding to 6 μg of chlorophyll were used.

PSII = target: T1, PSII (Spinacia oleracea, UniProt P69560); assay: Partial electron flow involving PSII only (excluding PSI); format: biochemical, spinach (Spinacea oleracea L.); conditions: DBMIB-blocked, phenylenediamine-restored flow excluding PSI
T1 construct: Thylakoid membranes were isolated from spinach (Spinacea oleracea L.) leaves; from tissue; host or cells: spinach leaves (thylakoid membranes)
Source text: An interference with the cytochrome b6f complex cannot be completely excluded, but this difference could simply rely on the experimental conditions employed. To evaluate the effect on PSII only, uncoupled activity is blocked by the addition of the cytochrome b6f inhibitor 2,5-dibromo-6-isopropyl-3-methyl-1,4-benzoquinone, and an electronic transfer from H2O to ferricyanide that excludes PSI is restored through addition of phenylenediamine. […] A similar effect was previously noticed also in the case of other inhibitors.[10b],[10e],[10j]
as §1

Raphanus sativus = assay: Growth of Raphanus sativus seedlings sown in the presence of the compound; format: in vivo, Raphanus sativus cv Scarlet Champion; conditions: 10 μM in agarized medium; growth measured at three-leaf stage, 3 weeks after sowing
Description: The ability of these compounds to interfere with plant growth was evaluated by measuring the growth of Raphanus sativus seedlings that had been sown in the presence of a given rubrolide. […] In that case, compound 5 was also found inhibitory, but at a 20-fold higher concentration (200 μM).
Figure 1 Effect of natural rubrolides 1–7 on the growth of the model plant Raphanus sativus. Seeds were sown in the presence of a given compound at a concentration of 10 μM. Controls received the same volume of DMSO (0.1%) used to dissolve the rubrolides. The commercial herbicide hexazinone was also included, as a positive control. Growth was measured when untreated plants reached the three-leaf stage, 3 weeks after sowing. Results were analyzed using Prism 6 for Windows by means of the Kolmogorov–Smirnov normality test (P = 0.05), and then subjected to 1-way ANOVA. […] Results were plotted as a box and whiskers plot showing 10–90th percentiles.
Seeds of Raphanus sativus cv Scarlet Champion were surface sterilized by treatment with ethanol for 4 min and with 3% NaClO containing 0.04% Triton X-100 for 8 min under vacuum. […] The fresh biomass of each seedling was measured at that point by a destructive harvest. […]

rapeseed = tested on: rapeseed; parameters: method as in PMID 38695089; conditions: cited from earlier work; for Inhibition of rapeseed growth: greenhouse treatments

**Q.** With O=C1O/C(=C\c2cc(Br)c(O)c(Br)c2)C(c2cc(Br)c(O)c(Br)c2)=C1Cl [Compound 1, rubrolide B] as the compound, how does the IC50 [1] read?
**A.** 8.62 ± 1.89 µM

**Q.** Which IC50 [1] does the source give for O=C1O/C(=C\c2ccc(O)c(Br)c2)C(c2ccc(O)c(Br)c2)=C1Cl [Compound 3, rubrolide K] here?
**A.** 8 ± 2.05 µM

**Q.** With O=C1O/C(=C\c2ccc(O)c(Br)c2)C(c2cc(Br)c(O)c(Br)c2)=C1Cl [Compound 4, rubrolide O] as the compound, how does the “Effect on ferricyanide reduction under uncoupling and phosphorylating conditions” value (shortened to “Effect on ferricyanide reduction”) [2] read?
**A.** progressive reduction of the activity

**Q.** What about the IC50 [1] of the same compound?
**A.** 4.37 ± 0.8 µM

**Q.** What about the “Effect on partial electron flow involving PSII only versus whole transport chain” value (PSII) of the same compound?
**A.** able to inhibit the electron transfer from PSII to the cytochrome b6f complex

**Q.** For O=C1C=C(c2ccc(O)cc2)/C(=C/c2ccc(O)cc2)O1 [Compound 5, rubrolide E], which “IC50, inhibition by 50% of the light-dependent ferricyanide reduction” value [1] is on record?
**A.** ineffective; also recorded: lack activity; also recorded: n.e. ^a

**Q.** And the “Effect on growth of Raphanus sativus seedlings (phytotoxicity)” value (Raphanus sativus)?
**A.** ineffective

**Q.** And the “Inhibition of rapeseed growth at 200 μM” value (rapeseed; 200 μM (20-fold higher concentration))?
**A.** inhibitory

**Q.** What about the “Inhibition of rapeseed growth” value (rapeseed) of the same compound?
**A.** inhibit rapeseed growth

**Q.** Which results are given for COc1ccc(/C=C2\OC(=O)C=C2c2ccc(O)cc2)cc1 [Compound 6, rubrolide F]?
**A.** IC50 [1]: > 25 µM and 29.3 µM; Inhibition of rapeseed growth (rapeseed): inhibit rapeseed growth

**Q.** For COc1ccc(/C=C2\OC(=O)C(Cl)=C2c2ccccc2)cc1 [Compound 12], which IC50 [1] is on record?
**A.** 257 ± 273 µM

**Q.** Which results are given for O=C1O/C(=C\c2ccc(F)cc2Cl)C(c2ccccc2)=C1Cl [Compound 13]?
**A.** IC50 [1]: 35.9 ± 7.7 µM; melting point: 145.3 to 147 °C

**Q.** With COc1ccc(Cl)cc1C1=C(Cl)C(=O)O/C1=C\c1ccc2c(c1)OCO2 [Compound 15] as the compound, how does the melting point read?
**A.** 134.9 to 136.2 °C

**Q.** With O=C1O/C(=C\c2ccc(-c3ccccc3)s2)C(c2ccc(F)cc2)=C1Cl [Compound 16] as the compound, how does the IC50 [1] read?
**A.** 266 ± 272 µM

**Q.** And the melting point?
**A.** 218.3 to 219.8 °C (dec.)

**Q.** What does the source list for O=C1O/C(=C\c2ccnc(Br)c2)C(c2ccc(F)cc2)=C1Cl [Compound 17]?
**A.** IC50, inhibition by 50% of the light-dependent ferricyanide reduction [1]: n.e. ^a; melting point: 150.3 to 152.8 °C

**Q.** Which “IC50, inhibition by 50% of the light-dependent ferricyanide reduction” value [1] does the source give for COc1ccc(C2=C(Cl)C(=O)O/C2=C\c2ccc(OC)c(Br)c2)cc1Cl [Compound 19] here?
**A.** no activity and n.e.

**Q.** With O=C1O/C(=C\c2ccc(O)c(Br)c2)C(c2ccc(O)c(Cl)c2)=C1Cl [Compound 20, (Z)-5-(3-Bromo-4-hydroxybenzylidene)-3-chloro-4-(3-chloro-4-hydroxyphenyl)furan-2(5H)-one] as the compound, how does the “Effect on ferricyanide reduction” value [2] read?
**A.** progressive reduction of the activity

**Q.** What about the IC50 [1] of the same compound?
**A.** 4.97 ± 1.05 µM

**Q.** What about the melting point of the same compound?
**A.** 210 to 213 °C (dec.)

**Q.** And the “Effect on partial electron flow involving PSII only versus whole transport chain” value (PSII)?
**A.** able to inhibit the electron transfer from PSII to the cytochrome b6f complex

**Q.** With CN(C)C(=O)Nc1ccc(Cl)c(Cl)c1 [Diuron, reference compound] as the compound, how does the IC50 [1] read?
**A.** 0.27 ± 0.01 µM

**Q.** And the “Effect on partial electron flow involving PSII only versus whole transport chain” value (PSII)?
**A.** very similar effectiveness

**Q.** For rubrolide C, which “Inhibition of rapeseed growth” value (rapeseed) is on record?
**A.** inhibit rapeseed growth

**Q.** With rubrolide I [Compound 2] as the compound, how does the “Effect on ferricyanide reduction” value [2] read?
**A.** progressive reduction of the activity

**Q.** What about the IC50 [1] of the same compound?
**A.** 5.54 ± 0.98 µM

**Q.** What about the “Effect on partial electron flow involving PSII only versus whole transport chain” value (PSII) of the same compound?
**A.** able to inhibit the electron transfer from PSII to the cytochrome b6f complex
